Measured values reported in patent US20190119251A1, “AMIDE-SUBSTITUTED ARYLTRIAZOLE DERIVATIVES AND USES THEREOF” (BAYER PHARMA AKTIENGESELLSCHAFT, priority 2016, published 2019).

Experiments:
human V1a receptor = biological target: T1, human V1a receptor (Homo sapiens, UniProt P37288); test: Cellular in vitro assay for determining vasopressin receptor activity (V1a cell line, aequorin luminescence); assay type: cell-based; conditions: for IC50: CHO cell line transfected with the human V1a receptor, agonist [Arg8]-vasopressin at EC50 concentration, read-out: IC50 hV1a; for ratio IC50 hV2/hV1a: ratio of cellular IC50 values, human V2 over human V1a
T1 construct: expressed in transfected cells; host or cells: CHO K1 (Chinese hamster ovary), also stably transfected with modified aequorin
Protocol: (§1) B-1. Cellular In Vitro Assay for Determining Vasopressin Receptor Activity
(§2) The identification of agonists and antagonists of the V 1 a and V2 vasopressin receptors from humans, rats and dogs as well as the quantification of the activity of the compounds of the invention is carried out using recombinant cell lines. These cell lines originally derive from a hamster's ovary epithelial cell (Chinese Hamster Ovary, CHO K1, ATCC: American Type Culture Collection, Manassas, Va. 20108, USA). The test cell lines constitutively express the human, rat or dog
(§3) V1 a or V2 receptors. In case of the Gag-coupled V 1 a receptors, cells are also stably transfected with a modified form of the calcium-sensitive photoproteins aequorin (human and rat V1a) or obelin (dog V 1 a), which, after reconstitution with the cofactor coelenterazine, emit light when there are increases in free calcium concentrations [Rizzuto R, Simpson A W, Brini M, Pozzan T, Nature 358, 325-327 (1992); Illarionov B A, Bondar V S, Illarionova V A, Vysotski E S, Gene 153 (2), 273-274 (1995)]. The resulting vasopressin receptor cells react to stimulation of the recombinantly expressed V 1 a receptors by intracellular release of calcium ions, which can be quantified by the resulting photoprotein luminescence. The Gs-coupled V2 receptors are stably transfected into cell lines expressing the gene for firefly luciferase under control of a CRE-responsible promoter. Activation of V2 receptors induces the activation of the CRE-responsive promoter via cAMP increase, thereby inducing the expression of firefly luciferase. The light emitted by photoproteins of V1a cell lines as well as the light emitted by firefly luciferase of V2 cell lines corresponds to the activation or inhibition of the respective vasopressin receptor. The bioluminescence of the cell lines is detected using a suitable luminometer [Milligan G, Marshall F, Rees S, Trends in Pharmacological Sciences 17, 235-237 (1996)].
Vasopressin V1a Receptor Cell Lines:
On the day before the assay, the cells are plated out in culture medium (DMEM/F12, 2% FCS, 2 mM glutamine, 10 mM HEPES, 5 μg/ml coelenterazine) in 384-well microtiter plates and kept in a cell incubator (96% humidity, 5% v/v CO2, 37° C.). On the day of the assay, test compounds in various concentrations are placed for 10 minutes in the wells of the microtiter plate before the agonist [Arg^8]-vasopressin at EC50 concentration is added. The resulting light signal is measured immediately in a luminometer.
(§4) Table 1A below lists individual IC50 values for the compounds of the invention (including racemic mixtures as well as separated enantiomers) that were obtained from cell lines transfected with the human V1a or V2 receptor: […]

human V2 receptor = biological target: T2, human V2 receptor (Homo sapiens, UniProt P30518); test: Cellular in vitro assay for determining vasopressin receptor activity (V2 cell line, CRE-luciferase); assay type: cell-based; conditions: CHO cell line transfected with the human V2 receptor; agonist [Arg8]-vasopressin at EC50 concentration; 3 hours incubation; read-out: IC50 hV2
T2 construct: expressed in transfected cells; host or cells: CHO K1 (Chinese hamster ovary) expressing firefly luciferase under a CRE-responsive promoter
Protocol: as §1, §2, §3
Vasopressin V2 Receptor Cell Lines:
On the day before the assay, the cells are plated out in culture medium (DMEM/F12, 2% FCS, 2 mM glutamine, 10 mM HEPES) in 384-well microtiter plates and kept in a cell incubator (96% humidity, 5% v/v CO2, 37° C.). On the day of the assay, test compounds in various concentrations and the agonist [Arg^8]-vasopressin at EC50 concentration are added together to the wells, and plates are incubated for 3 hours in a cell incubator. Upon addition of the cell lysis reagent Triton™ and the substrate luciferin, luminescence of firefly luciferase is measured in a luminometer.
as §4

T2 sequence (P30518 whole entry): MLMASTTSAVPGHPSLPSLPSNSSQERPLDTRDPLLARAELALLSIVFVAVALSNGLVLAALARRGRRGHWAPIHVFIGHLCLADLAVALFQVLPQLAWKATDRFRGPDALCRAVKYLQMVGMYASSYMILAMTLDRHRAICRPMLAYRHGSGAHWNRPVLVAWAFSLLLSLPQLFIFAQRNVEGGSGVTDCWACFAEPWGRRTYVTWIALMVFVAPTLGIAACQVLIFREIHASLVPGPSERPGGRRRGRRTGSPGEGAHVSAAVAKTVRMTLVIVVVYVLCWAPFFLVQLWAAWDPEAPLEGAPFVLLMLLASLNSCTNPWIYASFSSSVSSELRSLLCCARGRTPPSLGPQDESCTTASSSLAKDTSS
T1 sequence (P37288 whole entry): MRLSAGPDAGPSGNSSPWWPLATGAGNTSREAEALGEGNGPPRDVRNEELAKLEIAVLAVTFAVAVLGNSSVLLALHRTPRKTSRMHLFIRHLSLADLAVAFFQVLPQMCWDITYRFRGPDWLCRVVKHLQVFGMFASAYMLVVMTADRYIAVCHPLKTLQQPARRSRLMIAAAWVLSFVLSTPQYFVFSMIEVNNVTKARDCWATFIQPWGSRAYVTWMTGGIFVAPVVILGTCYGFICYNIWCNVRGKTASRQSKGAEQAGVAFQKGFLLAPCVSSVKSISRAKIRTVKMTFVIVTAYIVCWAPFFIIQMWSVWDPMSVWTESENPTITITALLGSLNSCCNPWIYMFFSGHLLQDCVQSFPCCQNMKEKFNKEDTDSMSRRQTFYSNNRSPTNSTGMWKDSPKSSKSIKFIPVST

Row | Compound | IC50 (human V1a receptor) | ratio IC50 hV2/hV1a (human V1a receptor) | IC50 (human V2 receptor)
1 | NC(=O)c1ccncc1-n1nc(Cn2nc(-c3ccc(Cl)cc3)n(C[C@H](O)C(F)(F)F)c2=O)nc1C(N)=O [Example 14, 3-[5-Carbamoyl-3-({3-(4-chlorophenyl)-5-oxo-4-[(2S)-3,3,3-trifluoro-2-hydroxypropyl]-4,5-dihydro-1H-1,2,4-triazol-1-yl}methyl)-1H-1,2,4-triazol-1-yl]pyridine-4-carboxamide] | 152 nM | 4.2 | 638 nM
2 | NC(=O)c1nc(Cn2nc(-c3ccc(Cl)cc3)n(C[C@H](O)C(F)(F)F)c2=O)nn1-c1ccccc1Br [Example 17, 1-(2-Bromophenyl)-3-({3-(4-chlorophenyl)-5-oxo-4-[(2S)-3,3,3-trifluoro-2-hydroxypropyl]-4,5-dihydro-1H-1,2,4-triazol-1-yl}methyl)-1H-1,2,4-triazole-5-carboxamide] | 0.45 nM | 15.6 | 7 nM
3 | CSc1ccccc1-n1nc(Cn2nc(-c3ccc(Cl)cc3)n(C[C@H](O)C(F)(F)F)c2=O)nc1C(N)=O [Example 18, 3-({3-(4-Chlorophenyl)-5-oxo-4-[(2S)-3,3,3-trifluoro-2-hydroxypropyl]-4,5-dihydro-1H-1,2,4-triazol-1-yl}methyl)-1-[2-(methylsulfanyl)phenyl]-1H-1,2,4-triazole-5-carboxamide] | 0.54 nM | 3.1 | 1.65 nM
4 | CCc1ccccc1-n1nc(Cn2nc(-c3ccc(Cl)cc3)n(C[C@H](O)C(F)(F)F)c2=O)nc1C(N)=O [Example 20, 3-({3-(4-Chlorophenyl)-5-oxo-4-[(2S)-3,3,3-trifluoro-2-hydroxypropyl]-4,5-dihydro-1H-1,2,4-triazol-1-yl}methyl)-1-(2-ethylphenyl)-1H-1,2,4-triazole-5-carboxamide] | 0.75 nM | 3.7 | 2.73 nM
5 | NC(=O)c1nc(Cn2nc(-c3ccc(Cl)cc3)n(C[C@H](O)C(F)(F)F)c2=O)nn1-c1c(F)cccc1Cl [Example 21, 1-(2-Chloro-6-fluorophenyl)-3-({3-(4-chlorophenyl)-5-oxo-4-[(2S)-3,3,3-trifluoro-2-hydroxypropyl]-4,5-dihydro-1H-1,2,4-triazol-1-yl}methyl)-1H-1,2,4-triazole-5-carboxamide] | 0.75 nM | 7.0 | 5.25 nM
6 | NC(=O)c1nc(Cn2nc(-c3ccc(Cl)cc3)n(C[C@H](O)C(F)(F)F)c2=O)nn1-c1c(Cl)cccc1Cl [Example 22, 3-({3-(4-Chlorophenyl)-5-oxo-4-[(2S)-3,3,3-trifluoro-2-hydroxypropyl]-4,5-dihydro-1H-1,2,4-triazol-1-yl}methyl)-1-(2,6-dichlorophenyl)-1H-1,2,4-triazole-5-carboxamide] | 1.65 nM | 2.2 | 3.63 nM
7 | NC(=O)c1nc(Cn2nc(-c3ccc(Cl)cc3)n(C[C@H](O)C(F)(F)F)c2=O)nn1-c1ccccc1[N+](=O)[O-] [Example 24, 3-({3-(4-Chlorophenyl)-5-oxo-4-[(2S)-3,3,3-trifluoro-2-hydroxypropyl]-4,5-dihydro-1H-1,2,4-triazol-1-yl}methyl)-1-(2-nitrophenyl)-1H-1,2,4-triazole-5-carboxamide] | 2.6 nM | 11.7 | 30.5 nM

Now from value to molecule:

Row | IC50 (human V1a receptor) | ratio IC50 hV2/hV1a (human V1a receptor) | IC50 (human V2 receptor) | Compound
8 | 93.5 nM | 2.6 | 245 nM | COc1nccnc1-n1nc(Cn2nc(-c3ccc(Cl)cc3)n(C[C@H](O)C(F)(F)F)c2=O)nc1C(N)=O [Example 9, 3-({3-(4-Chlorophenyl)-5-oxo-4-[(2S)-3,3,3-trifluoro-2-hydroxypropyl]-4,5-dihydro-1H-1,2,4-triazol-1-yl}methyl)-1-(3-methoxypyrazin-2-yl)-1H-1,2,4-triazole-5-carboxamide]
9 | 97.5 nM | 1.6 | 152 nM | NC(=O)c1nc(Cn2nc(-c3ccc(Cl)cc3)n(C[C@H](O)C(F)(F)F)c2=O)nn1-c1cccnc1Cl [Example 10, 3-({3-(4-Chlorophenyl)-5-oxo-4-[(2S)-3,3,3-trifluoro-2-hydroxypropyl]-4,5-dihydro-1H-1,2,4-triazol-1-yl}methyl)-1-(2-chloropyridin-3-yl)-1H-1,2,4-triazole-5-carboxamide]
10 | 115 nM | 1.3 | 150 nM | NC(=O)c1nc(Cn2nc(-c3ccc(Cl)cc3)n(C[C@H](O)C(F)(F)F)c2=O)nn1-c1ccccn1 [Example 11, 3-({3-(4-Chlorophenyl)-5-oxo-4-[(2S)-3,3,3-trifluoro-2-hydroxypropyl]-4,5-dihydro-1H-1,2,4-triazol-1-yl}methyl)-1-(pyridin-2-yl)-1H-1,2,4-triazole-5-carboxamide]
11 | 125 nM | 1.2 | 150 nM | Cc1ccnc(Cl)c1-n1nc(Cn2nc(-c3ccc(Cl)cc3)n(C[C@H](O)C(F)(F)F)c2=O)nc1C(N)=O [Example 12, 1-(2-Chloro-4-methylpyridin-3-yl)-3-({3-(4-chlorophenyl)-5-oxo-4-[(2 S)-3,3,3-trifluoro-2-hydroxypropyl]-4,5-dihydro-1H-1,2,4-triazol-1-yl}methyl)-1H-1,2,4-triazole-5-carboxamide]
12 | 135 nM | 3.9 | 525 nM | CCOc1ncccc1-n1nc(Cn2nc(-c3ccc(Cl)cc3)n(C[C@H](O)C(F)(F)F)c2=O)nc1C(N)=O [Example 13, 3-({3-(4-Chlorophenyl)-5-oxo-4-[(2S)-3,3,3-trifluoro-2-hydroxypropyl]-4,5-dihydro-1H-1,2,4-triazol-1-yl}methyl)-1-(2-ethoxypyridin-3-yl)-1H-1,2,4-triazole-5-carboxamide]
13 | 175 nM | 0.2 | 35 nM | NC(=O)c1nc(Cn2nc(-c3ccc(Cl)cc3)n(C[C@H](O)C(F)(F)F)c2=O)nn1-c1cc(Cl)ccn1 [Example 15, 3-({3-(4-Chlorophenyl)-5-oxo-4-[(2S)-3,3,3-trifluoro-2-hydroxypropyl]-4,5-dihydro-1H-1,2,4-triazol-1-yl}methyl)-1-(4-chloropyridin-2-yl)-1H-1,2,4-triazole-5-carboxamide]
14 | 690 nM | 3.3 | 2250 nM | NC(=O)c1nc(Cn2nc(-c3ccc(Cl)cc3)n(C[C@H](O)C(F)(F)F)c2=O)nn1-c1ncccn1 [Example 16, 3-({3-(4-Chlorophenyl)-5-oxo-4-[(2S)-3,3,3-trifluoro-2-hydroxypropyl]-4,5-dihydro-1H-1,2,4-triazol-1-yl}methyl)-1-(pyrimidin-2-yl)-1H-1,2,4-triazole-5-carboxamide]
15 | 0.65 nM | 7.5 | 4.91 nM | Cc1ccccc1-n1nc(Cn2nc(-c3ccc(Cl)cc3)n(C[C@H](O)C(F)(F)F)c2=O)nc1C(N)=O [Example 19, 3-({3-(4-Chlorophenyl)-5-oxo-4-[(2S)-3,3,3-trifluoro-2-hydroxypropyl]-4,5-dihydro-1H-1,2,4-triazol-1-yl}methyl)-1-(2-methylphenyl)-1H-1,2,4-triazole-5-carboxamide]
16 | 2.45 nM | 1.0 | 2.53 nM | Cc1cccc(C)c1-n1nc(Cn2nc(-c3ccc(Cl)cc3)n(C[C@H](O)C(F)(F)F)c2=O)nc1C(N)=O [Example 23, 3-({3-(4-Chlorophenyl)-5-oxo-4-[(2S)-3,3,3-trifluoro-2-hydroxypropyl]-4,5-dihydro-1H-1,2,4-triazol-1-yl}methyl)-1-(2,6-dimethylphenyl)-1H-1,2,4-triazole-5-carboxamide]
